Test [1] addresses T1, RecQ-WH (Escherichia coli, UniProt P15043).
T1 construct: coding for residues 408– 523 of E. coli RecQ; made in house; host or cells: E. coli BL21(DE3)
As to the kind of experiment: Competition pull-down with native ligand SSB-Ct8. Particulars: H14 library; competitor peptide 200 µM; read-out: Surface mapping KD (apparent), competition. The format is binding, E. coli.

For test [2], the target named is T2, Gal-1 (Homo sapiens, UniProt P09382).
T2 construct: made in house; host or cells: E. coli BL21(DE3)
T2 sequence (P09382 whole entry): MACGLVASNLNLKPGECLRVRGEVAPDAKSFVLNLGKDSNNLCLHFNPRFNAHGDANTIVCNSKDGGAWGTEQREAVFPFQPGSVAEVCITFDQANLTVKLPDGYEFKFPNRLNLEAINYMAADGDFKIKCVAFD
As to the kind of experiment: Pull-down assay with immobilized protein and LSM libraries. The format is binding. Particulars: H14 library; 1:1 binding assumed; read-out: Surface mapping KD (apparent). The method in brief:
(§1)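 His-tagged protein immobilized on Co-NTA resin (64 µM) in 20 mM HEPES pH 7.4, 150 mM NaCl, equilibrated 30 min at room temperature with foldamer LSM sublibraries at equimolar total concentration. Unbound fractions quantified by HPLC-MS versus protein-free resin control; apparent KD assumes 1:1 binding.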

Test [3] has as its target T3, S100B (Homo sapiens, UniProt P04271).
T3 construct: made in house; host or cells: Escherichia coli BL21(DE3)
T3 sequence (P04271 1-92): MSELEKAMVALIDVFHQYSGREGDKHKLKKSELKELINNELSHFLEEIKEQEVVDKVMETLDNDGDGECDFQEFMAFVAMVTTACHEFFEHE
The description is as above. Type of test: binding. Particulars: H14 library; 1:1 binding assumed; read-out: Surface mapping KD (apparent). The method in brief:
(§2)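 Buffers were HEPES pH 7.4 with 150 mM NaCl, plus 1 mM TCEP and 1 mM CaCl2 (50 mM HEPES) for S100A4 and S100B, 1 mM TCEP for Gal-1, and no additive for RecQ-WH. Immobilized protein at 64 µM was equilibrated 30 min with the LSM sublibrary, and unbound probes were measured by LC-MS.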

The target of another test is T4, S100A4 (Homo sapiens, UniProt P26447).
T4 construct: made in house; host or cells: Escherichia coli BL21(DE3)
T4 sequence (P26447 whole entry): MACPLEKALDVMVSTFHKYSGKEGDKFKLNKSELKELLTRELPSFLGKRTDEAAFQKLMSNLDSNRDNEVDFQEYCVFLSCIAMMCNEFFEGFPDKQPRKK
Described as above. The format is binding. Particulars: H14 library; 1:1 binding assumed; read-out: Surface mapping KD (apparent). In a few lines:
as §2

Test [4] has as its target T5, CaM (Bos taurus, UniProt P62157).
T5 construct: made in house; host or cells: E. coli BL21 (DE3)
Described as above. Particulars: H14 library; 1:2 stoichiometry assumed; read-out: Surface mapping KD (apparent). Type of test: binding, bovine. The method in brief: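 His-tagged protein immobilized on Co-NTA resin, equilibrated 30 min at room temperature with LSM sublibraries (64 members, […]), equimolar protein to total probe. CaM buffer: 20 mM HEPES pH 7.4, 150 mM NaCl, 5 mM CaCl2. Bound fractions from HPLC-MS loss of unbound probe versus protein-free resin control; Kd derived.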

Test [5] addresses T3, S100B. As to the kind of experiment: Competition pull-down with native ligand RSK1 (689–735). Particulars: H14 library; competitor peptide 200 µM; read-out: Surface mapping KD (apparent), competition. Type of test: binding.
In test [6] the target is T2, Gal-1. The test can be described thus: Competition pull-down with lactose. The format is binding. Particulars: H14 library; lactose 10 mM; read-out: Surface mapping KD (apparent), competition. In a few lines: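 His6-tagged proteins immobilized on Co-NTA resin at 64 µM final with 64-member LSM foldamer sublibraries (1 M each, as printed) in pH 7.4 HEPES/NaCl buffers (Ca2+/TCEP per target), 30 min RT; competitor peptides 200 µM final, lactose 10 mM for Gal-1. Bound fractions from LC-MS loss vs protein-free resin; KD assuming 1:1 binding.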

The target of test [7] is T1, RecQ-WH. As to the kind of experiment: Pull-down assay with immobilized protein and LSM libraries. Further details: species or system E. coli. Particulars: H14 library; 1:1 binding assumed; read-out: Surface mapping KD (apparent). The method in brief: as §1
For test [8], the target named is T5, CaM. As to the kind of experiment: Competition pull-down with native ligand TRPV1-Ct15. The format is binding, bovine. Particulars: H14 library; competitor peptide 200 µM; read-out: Surface mapping KD (apparent), competition.

Molecules are shown by their SMILES.

T1 sequence (P15043 408-523): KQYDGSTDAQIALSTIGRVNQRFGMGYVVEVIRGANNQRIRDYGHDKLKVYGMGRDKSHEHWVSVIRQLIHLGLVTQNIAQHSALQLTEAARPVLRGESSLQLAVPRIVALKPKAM

Turning to `NC(=O)[C@H]1CCCC[C@@H]1NC(=O)C[C@H](Cc1c[nH]c2ccccc12)NC(=O)[C@H]1CCCC[C@@H]1NC(=O)[C@H]1CCCC[C@@H]1NC(=O)C[C@H](CO)NC(=O)[C@H]1CCCC[C@@H]1N` [H14 SW], the Kd on RecQ-WH [1] is 265 µM; at Gal-1 [2], 151 µM; on S100B [3], 79 µM; at S100A4, 179 µM; on CaM [4], 23 µM; at S100B [5], 458 µM. Further, the Kd at Gal-1 [6] is 177 µM; at RecQ-WH [7], 73 µM.

Turning to `NC(=O)[C@H]1CCCC[C@@H]1NC(=O)C[C@H](Cc1ccc(O)cc1)NC(=O)[C@H]1CCCC[C@@H]1NC(=O)[C@H]1CCCC[C@@H]1NC(=O)C[C@H](Cc1ccc(O)cc1)NC(=O)[C@H]1CCCC[C@@H]1N` [H14 YY], the Kd on RecQ-WH [1] turned out to be 298 µM; at Gal-1 [2], 375 µM; on S100B [3], 121 µM; at S100A4 it was 70 µM; at CaM [4] it was 7 µM; at S100B [5] it was 393 µM. At RecQ-WH [7], the Kd amounted to 114 µM.

As to `N=C(N)NCCC[C@@H](CC(=O)N[C@H]1CCCC[C@@H]1C(N)=O)NC(=O)[C@H]1CCCC[C@@H]1NC(=O)[C@H]1CCCC[C@@H]1NC(=O)C[C@H](Cc1ccccc1)NC(=O)[C@H]1CCCC[C@@H]1N` [H14 FR], the Kd at Gal-1 [2] was 222 µM; at S100B [3] it was 56 µM; on S100A4, 124 µM; on CaM [4], 3 µM; at CaM [8], 290 µM; on S100B [5], 406 µM. Also, the figures for the Kd at Gal-1 [6] and at RecQ-WH [7] were 208 µM and 447 µM, respectively.

As to `CC[C@H](C)[C@@H](CC(=O)N[C@H]1CCCC[C@@H]1C(N)=O)NC(=O)[C@H]1CCCC[C@@H]1NC(=O)[C@H]1CCCC[C@@H]1NC(=O)C[C@H](Cc1ccc(O)cc1)NC(=O)[C@H]1CCCC[C@@H]1N` [H14 YI], the Kd amounted to 148 µM at Gal-1 [2]; 62 µM on S100B [3]; 19 µM on S100A4; 2 µM at CaM [4]; 428 µM on CaM [8]; 201 µM at S100B [5]. The results for the Kd on Gal-1 [6] and on RecQ-WH [7] were 256 µM and 150 µM, respectively.

Consider `NCCCC[C@@H](CC(=O)N[C@H]1CCCC[C@@H]1C(N)=O)NC(=O)[C@H]1CCCC[C@@H]1NC(=O)[C@H]1CCCC[C@@H]1NC(=O)C[C@H](Cc1c[nH]c2ccccc12)NC(=O)[C@H]1CCCC[C@@H]1N` [H14 WK], for which the Kd amounted to 262 µM at Gal-1 [2]; 40 µM on S100B [3]; 136 µM at S100A4; 1.1 µM at CaM [4]; 201 µM on CaM [8]; 412 µM on S100B [5]. Also, the Kd is 252 µM at Gal-1 [6] and 287 µM at RecQ-WH [7].

Turning to `CSCC[C@@H](CC(=O)N[C@H]1CCCC[C@@H]1C(N)=O)NC(=O)[C@H]1CCCC[C@@H]1NC(=O)[C@H]1CCCC[C@@H]1NC(=O)C[C@H](Cc1ccc(O)cc1)NC(=O)[C@H]1CCCC[C@@H]1N` [H14 YM], the Kd on Gal-1 [2] was determined as 98 µM; at S100B [3] it was 176 µM; on S100A4, 90 µM; on CaM [4], 7 µM; at CaM [8], 402 µM; at S100B [5] it was 344 µM. Also, the Kd stood at 133 µM at Gal-1 [6] and 263 µM on RecQ-WH [7].

Turning to `C[C@@H](CC(=O)N[C@H]1CCCC[C@@H]1C(N)=O)NC(=O)[C@H]1CCCC[C@@H]1NC(=O)[C@H]1CCCC[C@@H]1NC(=O)C[C@H](Cc1ccccc1)NC(=O)[C@H]1CCCC[C@@H]1N` [H14 FA], the Kd was found to be 130 µM at Gal-1 [2]; 253 µM at S100B [3]; 58 µM at S100A4; 3 µM at CaM [4]; 309 µM on CaM [8]; 330 µM on S100B [5]. The Kd at Gal-1 [6] is 151 µM; on RecQ-WH [7], 282 µM.

In the case of `C[C@@H](CC(=O)N[C@H]1CCCC[C@@H]1C(=O)N[C@H]1CCCC[C@@H]1C(=O)N[C@H](CC(=O)N[C@H]1CCCC[C@@H]1C(N)=O)Cc1ccccc1)NC(=O)[C@H]1CCCC[C@@H]1N` [H14 AF], the Kd came out at 454 µM at RecQ-WH [1]; 121 µM on Gal-1 [2]; 45 µM at S100B [3]; 13 µM on S100A4; 5 µM on CaM [4]; 354 µM at S100B [5]. In addition, the Kd was found to be 333 µM at Gal-1 [6] and 483 µM at RecQ-WH [7].

In the case of `CSCC[C@@H](CC(=O)N[C@H]1CCCC[C@@H]1C(=O)N[C@H]1CCCC[C@@H]1C(=O)N[C@H](CC(=O)N[C@H]1CCCC[C@@H]1C(N)=O)Cc1ccc(O)cc1)NC(=O)[C@H]1CCCC[C@@H]1N` [H14 MY], the Kd at Gal-1 [2] is 98 µM; at S100B [3], 176 µM; on S100A4, 90 µM; at CaM [4], 15 µM; on CaM [8] it was 402 µM; at S100B [5], 330 µM. In addition, the Kd at Gal-1 [6] is 133 µM; at RecQ-WH [7], 263 µM.

Turning to `NC(=O)[C@H]1CCCC[C@@H]1NC(=O)C[C@H](Cc1ccc(O)cc1)NC(=O)[C@H]1CCCC[C@@H]1NC(=O)[C@H]1CCCC[C@@H]1NC(=O)C[C@H](Cc1ccccc1)NC(=O)[C@H]1CCCC[C@@H]1N` [H14 FY], the Kd on RecQ-WH [1] came to 231 µM; on Gal-1 [2], 214 µM; at S100B [3], 96 µM; on S100A4, 57 µM; at CaM [4], 3 µM; at S100B [5], 146 µM. In addition, the Kd was 395 µM at Gal-1 [6] and 92 µM on RecQ-WH [7].

Consider `NC(=O)[C@H]1CCCC[C@@H]1NC(=O)C[C@H](CC(=O)O)NC(=O)[C@H]1CCCC[C@@H]1NC(=O)[C@H]1CCCC[C@@H]1NC(=O)C[C@H](Cc1c[nH]c2ccccc12)NC(=O)[C@H]1CCCC[C@@H]1N` [H14 WD], for which the figures for the Kd on RecQ-WH [1], on CaM [4] and on RecQ-WH [7] were 479 µM, 308 µM and 145 µM, respectively.

With `NC(=O)[C@H]1CCCC[C@@H]1NC(=O)C[C@H](CO)NC(=O)[C@H]1CCCC[C@@H]1NC(=O)[C@H]1CCCC[C@@H]1NC(=O)C[C@H](Cc1c[nH]c2ccccc12)NC(=O)[C@H]1CCCC[C@@H]1N` [H14 WS], the Kd turned out to be 352 µM at RecQ-WH [1]; 467 µM at Gal-1 [2]; 138 µM on S100B [3]; 176 µM on S100A4; 9 µM on CaM [4]; 307 µM on CaM [8]. The results for the Kd at S100B [5] and on RecQ-WH [7] were 434 µM and 209 µM, respectively.

On to `CC(C)C[C@@H](CC(=O)N[C@H]1CCCC[C@@H]1C(N)=O)NC(=O)[C@H]1CCCC[C@@H]1NC(=O)[C@H]1CCCC[C@@H]1NC(=O)C[C@H](Cc1ccc(O)cc1)NC(=O)[C@H]1CCCC[C@@H]1N` [H14 YL], for which the Kd at Gal-1 [2] was 148 µM; at S100B [3], 62 µM; on S100A4, 19 µM; on CaM [4], 2 µM; on CaM [8], 428 µM; at S100B [5], 201 µM. Also, the Kd on Gal-1 [6] was found to be 256 µM; at RecQ-WH [7] it was 150 µM.

Regarding `N=C(N)NCCC[C@@H](CC(=O)N[C@H]1CCCC[C@@H]1C(N)=O)NC(=O)[C@H]1CCCC[C@@H]1NC(=O)[C@H]1CCCC[C@@H]1NC(=O)C[C@H](Cc1c[nH]c2ccccc12)NC(=O)[C@H]1CCCC[C@@H]1N` [H14 WR], the Kd at Gal-1 [2] was determined as 278 µM; at S100B [3] it was 32 µM; on S100A4, 81 µM; at CaM [4], 0.5 µM; at CaM [8] it was 167 µM; on S100B [5] it was 166 µM. For the same compound, the results for the Kd at Gal-1 [6] and on RecQ-WH [7] were 280 µM and 272 µM, respectively.

In the case of `C[C@@H](O)[C@@H](CC(=O)N[C@H]1CCCC[C@@H]1C(=O)N[C@H]1CCCC[C@@H]1C(=O)N[C@H](CC(=O)N[C@H]1CCCC[C@@H]1C(N)=O)Cc1ccccc1)NC(=O)[C@H]1CCCC[C@@H]1N` [H14 TF], the Kd at Gal-1 [2] came out at 140 µM; on S100B [3], 44 µM; at S100A4, 43 µM; at CaM [4], 163 µM; on CaM [8] it was 94 µM; at S100B [5], 294 µM. Moreover, the values for the Kd on Gal-1 [6] and at RecQ-WH [7] were 220 µM and 407 µM, respectively.

(Values after publication PMC8162404, “Proteomimetic surface fragments distinguish targets by function” (Chemical Science, 2020).)
